# Experimental data from patent US20210355115A1, “ISOXAZOLE CARBOXAMIDE COMPOUNDS AND USES THEREOF” (Novartis AG, priority 2018, published 2021).
# Tested on: Atoh1
# Test: Atoh1 induction assay in mouse cerebellar neural precursor cells (Atoh1-GFP reporter assay)
# Format: cell-based
# Details: maximum fold difference over DMSO control (=1), cerebellar NPCs from Atoh1-GFP mice, 10 doses 50 μM to 200 nM, 72 hours treatment, read-out: Fold Difference (ratio of Atoh1-GFP average intensity_FC to DMSO_Max)
# Experimental: Atoh1 induction assay was conducted with in vitro cultured cerebellar neural precursor cells isolated from neonatal transgenic Atoh1-GFP mice. Atoh1 expression is mainly regulated by the enhancer, and the nuclear GFP was driven by the cloned enhancer sequence at 3′ of Atoh1 which had high conservation among mammalians So Atoh1 induction could be reflected by GFP activation in cerebellar neural precursor cells (Helms et al., Development 2000; 127: 1185-1196; Lumpkin et al., Gene Expression Patterns 2003; 3: 389-395). Postnatal 3 days pups were dissected for cerebellum tissue isolation. The cerebellum tissue was cut into small pieces, and dissociated with 0.05% Trypsin for about 10 minutes at 37° C., and then filtered with a 70 uM cell strainer. The cells were cultured as neuropsheres for the first 2 days in ultra-low attachment dish/well-plate with DMEM/F12+1% N2 &2% B27 with 1% P/S, 20 ng/ml rhFGF2 and 20 ng/ml rhEGF (R&D Systems). Then the spheres were plated to the matrigel (1:30 diluted in DMEM/F12)-coated tissue culture dish for monolayer culture. After 4.5-5.5 days culture in vitro (DIV), cells were dissociated with 0.05% trypsin into single cells, and frozen after cell number calculation.
# The cerebellar neural precursor cells (NPCs) were re-thawed from stock and cultured for another 2 days before used for Atoh1 induction assay. On the first day of assay, NPCs were seeded into matrigel-coated 384 well plates (Black view-plate, PE) at 2500 cells/well. After over-night culture, the NPCs were treated with representative compounds of the present disclosure with 1:2 serial dilutions for 10 doses, from 50 μM to 200 nM, with DMSO as negative control. After 72 hours treatment without medium change, the cells were fixed with 4% formalin for staining Assay plates were stained with GFP antibody (Abcam, #13970, 1:1000) to amplify endogenous GFP signal and then read by Cellomics. […] Table 1 Atoh1 activation by treatment of Compounds of the present disclosure (Atoh1-GFP reporter assay in cerebellar NPCs)
row,SMILES,maximal fold induction
1,"NC(=O)C1CCN(CCCCCNC(=O)c2cc(-c3ccc(F)cc3)on2)C1 (centres unmarked) [Example 8, N-(5-(3-carbamoylpyrrolidin-1-yl)pentyl)-5-(4-fluorophenyl)isoxazole-3-carboxamide]",14.6
2,"NC(=O)C1(O)CCN(CCCCCNC(=O)c2cc(-c3cccs3)on2)CC1 [Example 26, N-(5-(4-carbamoyl-4-hydroxypiperidin-1-yl)pentyl)-5-(thiophen-2-yl)isoxazole-3-carboxamide]",16.3
3,"NC(=O)C1CCN(CCCCCNC(=O)c2cc(-c3cccs3)on2)CC1 [Example 20, N-(5-(4-cathamoylpiperidin-1-yl)pentyl)-5-(thiophen-2-yl)isoxazole-3-carboxamide]",14.7
4,"NS(=O)(=O)C1CCCN(CCCCCNC(=O)c2cc(-c3cccs3)on2)C1 (centres unmarked) [Example 6, N-(5-(3-sulfamoylpiperidin-1-yl)pentyl)-5-(thiophen-2-yl)isoxazole-3-carboxamide]",20.1
5,"N#C[C@H]1CCN(CCCCCNC(=O)c2cc(-c3cccs3)on2)C[C@@H]1O [Example 16, N-(5-((3R,4R)-4-cyano-3-hydroxypiperidin-1-yl)pentyl)-5-(thiophen-2-yl)isoxazole-3-carboxamide]",32.3
6,"NC(=O)C1CN(CCCCCNC(=O)c2cc(-c3ccc(F)s3)on2)C1 [Example 23, N-(5-(3-carbamoylazetidin-1-yl)pentyl)-5-(5-fluorothiophen-2-yl)isoxazole-3-carboxamide]",24.3
7,N#C[C@@H]1CN(CCCCCNC(=O)c2cc(-c3cccs3)on2)C[C@@H]1O [34 cis],11.2
8,"CC1(C(N)=O)CN(CCCCCNC(=O)c2cc(-c3ccc(F)cc3)on2)C1 [Example 12, N-(5-(3-carbamoyl-3-methylazetidin-1-yl)pentyl)-5-(4-fluorophenyl)isoxazole-3-carboxamide]",22.4
9,"N#C[C@H]1CCN(CCCCCNC(=O)c2cc(-c3cccs3)on2)C[C@@H]1C(N)=O [Example 29, N-(5-((3R,4S)-3-carbamoyl-4-cyanopiperidin-1-yl)pentyl)-5-(thiophen-2-yl)isoxazole-3-carboxamide]",15.4
10,NC(=O)[C@@H](O)CN1CCN(CCCCCNC(=O)c2cc(-c3cccs3)on2)CC1 [37 S],31.5
11,"NC(=O)C1(CO)CN(CCCCCNC(=O)c2cc(-c3cccs3)on2)C1 [Example 9, N-(5-(3-carbamoyl-3-(hydroxymethyl)azetidin-1-yl)pentyl)-5-(thiophen-2-yl)isoxazole-3-carboxamide]",24.4
12,"NC(=O)C1CN(CCCCCNC(=O)c2cc(-c3cccs3)on2)CC1O (centres unmarked) [Example 13, N-(5-(3-carbamoyl-4-hydroxypyrrolidin-1-yl)pentyl)-5-(thiophen-2-yl)isoxazole-3-carboxamide]",32.5
13,"CC(C#N)NC(=O)C1CN(CCCCCNC(=O)c2cc(-c3ccc(F)cc3)on2)C1 (centres unmarked) [Example 24, N-(5-(3-((1-cyanoethyl)carbamoyl)azetidin-1-yl)pentyl)-5-(4-fluorophenyl)isoxazole-3-carboxamide]",18.3
14,"CN1CCN(CCCCCNC(=O)c2cc(-c3cccs3)on2)CC1C(N)=O (centres unmarked) [Example 25, N-(5-(3-carbamoyl-4-methylpiperazin-1-yl)pentyl)-5-(thiophen-2-yl)isoxazole-3-carboxamide]",13.1
15,"N#C[C@@H]1CN(CCCCCNC(=O)c2cc(-c3cccs3)on2)CC[C@@H]1C(N)=O [Example 1, N-(5-((3S,4S)-4-carbamoyl-3-cyanopiperidin-1-yl)pentyl)-5-(thiophen-2-yl)isoxazole-3-carboxamide]",12.7
16,"N#C[C@H]1CCN(CCCCCNC(=O)c2cc(-c3ccc(F)cc3)on2)C[C@H]1O (single isomer, unassigned) [Example 2]",11.5
17,"NS(=O)(=O)C1CCN(CCCCCNC(=O)c2cc(-c3cccs3)on2)CC1 [Example 14, N-(5-(4-sulfamoylpiperidin-1-yl)pentyl)-5-(thiophen-2-yl)isoxazole-3-carboxamide]",23.8
18,"O=C(NCCCCCN1CC(S(=O)(=O)NC2COC2)C1)c1cc(-c2cccs2)on1 [Example 3, N-(5-(3-(N-(oxetan-3-yl)sulfamoyl)azetidin-1-yl)pentyl)-5-(thiophen-2-yl)isoxazole-3-carboxamide]",11.2

row,SMILES,maximal fold induction
1,"NC(=O)C1CCN(CCCCCNC(=O)c2cc(-c3ccc(F)cc3)on2)CC1O (centres unmarked) [Example 31, N-(5-(4-carbamoyl-3-hydroxypiperidin-1-yl)pentyl)-5-(4-fluorophenyl)isoxazole-3-carboxamide]",14.7
2,"N#CCCNS(=O)(=O)C1CN(CCCCCNC(=O)c2cc(-c3cccs3)on2)C1 [Example 4, N-(5-(3-(N-(2-cyanoethyl)sulfamoyl)azetidin-1-yl)pentyl)-5-(thiophen-2-yl)isoxazole-3-carboxamide]",18.3
3,"CC1(C(N)=O)CN(CCCCCNC(=O)c2cc(-c3cccs3)on2)C1 [Example 11, N-(5-(3-carbamoyl-3-methylazetidin-1-yl)pentyl)-5-(thiophen-2-yl)isoxazole-3-carboxamide]",33.3
4,"CNC(=O)C1CN(CCCCCNC(=O)c2cc(-c3ccc(F)s3)on2)C1 [Example 22, 5-(5-fluorothiophen-2-yl)-N-(5-(3-(methylcarbamoyl)azetidin-1-yl)pentyl)isoxazole-3-carboxamide]",16.8
5,"NS(=O)(=O)CCN1CCN(CCCCCNC(=O)c2cc(-c3cccs3)on2)CC1 [Example 19, N-(5-(4-(2-sulfamoylethyl)piperazin-1-yl)pentyl)-5-(thiophen-2-yl)isoxazole-3-carboxamide]",16.3
6,"NS(=O)(=O)C1CCN(CCCCCNC(=O)c2cc(-c3ccc(F)cc3)on2)CC1 [Example 15, 5-(4-fluorophenyl)-N-(5-(4-sulfamoylpiperidin-1-yl)pentyl)isoxazole-3-carboxamide]",18.9
7,NC(=O)[C@H](O)CN1CCN(CCCCCNC(=O)c2cc(-c3cccs3)on2)CC1 [37 R],29.2
8,"NC(=O)[C@@H]1CCN(CCCCCNC(=O)c2cc(-c3cccs3)on2)C[C@@H]1F [Example 28-cis, N-(5-((3R,4S)-4-carbamoyl-3-fluoropiperidin-1-yl)pentyl)-5-(thiophen-2-yl)isoxazole-3-carboxamide]",11.9
9,CNC(=O)COC(=O)NC1CN(CCCCCNC(=O)c2cc(-c3cccs3)on2)C1 [Example 5],17.2
10,"NC(=O)[C@@H]1CCN(CCCCCNC(=O)c2cc(-c3cccs3)on2)C[C@@H]1O (stereo in doubt) [Example 30, N-(5-(4-carbamoyl-3-hydroxypiperidin-1-yl)pentyl)-5-(thiophen-2-yl)isoxazole-3-carboxamide]",16.1
11,"NC(=O)C1(CO)CN(CCCCCNC(=O)c2cc(-c3ccc(F)cc3)on2)C1 [Example 10, N-(5-(3-carbamoyl-3-(hydroxymethyl)azetidin-1-yl)pentyl)-5-(4-fluorophenyl)isoxazole-3-carboxamide]",19.1
12,"O=C(NCCCCCN1CC(C(=O)NC2COCC2O)C1)c1cc(-c2cccs2)on1 (centres unmarked) [Example 36, N-(5-(3-((4-hydroxytetrahydrofuran-3-yl)carbamoyl)azetidin-1-yl)pentyl)-5-(thiophen-2-yl)isoxazole-3-carboxamide]",13.6
13,"NC(=O)C1(O)CN(CCCCCNC(=O)c2cc(-c3cccs3)on2)C1 [Example 21, N-(5-(3-carbamoyl-3-hydroxyazetidin-1-yl)pentyl)-5-(thiophen-2-yl)isoxazole-3-carboxamide]",20.8
14,"NC(=O)[C@@H]1CCN(CCCCCNC(=O)c2cc(-c3cccs3)on2)C[C@H]1F [Example 28-trans, N-(5-((3S,4S)-4-carbamoyl-3-fluoropiperidin-1-yl)pentyl)-5-(thiophen-2-yl)isoxazole-3-carboxamide]",16.8
15,"NS(=O)(=O)C1CCN(CCCCCNC(=O)c2cc(-c3cccs3)on2)C1 (centres unmarked) [Example 7, N-(5-(3-sulfamoylpyrrolidin-1-yl)pentyl)-5-(thiophen-2-yl)isoxazole-3-carboxamide]",17.2
16,"O=C(NCCCCCN1CC(C(=O)N[C@H]2CCC[C@H]2O)C1)c1cc(-c2ccc(F)cc2)on1 [Example 27, 5-(4-fluorophenyl)-N-(5-(3-(((1S,2R)-2-hydroxycyclopentyl)carbamoyl)azetidin-1-yl)pentyl)isoxazole-3-carboxamide]",13.5
17,"NC(=O)CCN1CCN(CCCCCNC(=O)c2cc(-c3cccs3)on2)CC1 [Example 17, N-(5-(4-(3-amino-3-oxopropyl)piperazin-1-yl)pentyl)-5-(thiophen-2-yl)isoxazole-3-carboxamide]",20.4
